Measured values taken from ChEMBL document CHEMBL1201862, “PubChem BioAssay data set” (2004).
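These data come from cells grown in 96-well plates and exposed to compound for 48 hours at five concentrations. GI50 = concentration required for 50% inhibition of growth.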 Active and inactive are the calls of the source. No stated cut-off is given here; in the data, active = GI50 up to about 1.1 µM and inactive = higher.

Columns and labels:
Assay in all cases: NCI-60 cell line screen, 48 h
SF-539 = test system: SF-539
SW-620 = test system: SW-620
T47D = test system: T47D
UACC-257 = test system: UACC-257
UACC-62 = test system: UACC-62
COLO 205 = test system: COLO 205
SN12C = test system: SN12C
SK-MEL-2 = test system: SK-MEL-2
CCRF-CEM = test system: CCRF-CEM
OVCAR-8 = test system: OVCAR-8
U-251 = test system: U-251
SF-268 = test system: SF-268
Malme-3M = test system: Malme-3M
OVCAR-5 = test system: OVCAR-5
SK-OV-3 = test system: SK-OV-3
OVCAR-4 = test system: OVCAR-4
DU-145 = test system: DU-145
MOLT-4 = test system: MOLT-4
MCF7 = test system: MCF7
SR = test system: SR

Measured: GI50

COc1cc([C@@H]2c3cc4c(cc3[C@@H](OC3OC5COC(C)OC5C(O)C3O)[C@H]3COC(=O)[C@H]23)OCO4)cc(OC)c1O (stereo partly drawn)
active: T47D 0.897 µM | DU-145 0.849 µM | MOLT-4 0.547 µM
inactive: SF-539 3.27 µM | SW-620 6.71 µM | UACC-257 37.2 µM | UACC-62 6.11 µM | COLO 205 40.3 µM | SN12C 5.2 µM | SK-MEL-2 21.7 µM | CCRF-CEM 1.4 µM | OVCAR-8 11.3 µM | U-251 3.3 µM | SF-268 7.6 µM | Malme-3M 9.44 µM | OVCAR-5 25.2 µM | SK-OV-3 17.2 µM | OVCAR-4 113 µM

Oc1nc2c(c(-c3ccc(Br)cc3)n1)COC/C2=C\c1ccc(Br)cc1
inactive: SF-539 > 50 µM | MCF7 47.4 µM | SW-620 > 50 µM | T47D > 50 µM | UACC-257 > 50 µM | UACC-62 > 50 µM | COLO 205 > 50 µM | SN12C > 50 µM | SK-MEL-2 > 50 µM | CCRF-CEM > 50 µM | OVCAR-8 > 50 µM | U-251 > 50 µM | SF-268 > 50 µM | Malme-3M > 50 µM | OVCAR-5 > 50 µM | SK-OV-3 > 50 µM | OVCAR-4 > 50 µM | DU-145 > 50 µM | MOLT-4 > 50 µM

O=C(O[C@H](/C=C/c1ccccc1)P1(=O)N(Cc2ccccc2)[C@@H]2CCCC[C@H]2N1Cc1ccccc1)c1ccccc1
inactive: SF-539 2.98 µM | MCF7 3.63 µM | SW-620 3.57 µM | UACC-257 7.87 µM | UACC-62 4.86 µM | COLO 205 2.17 µM | SN12C 3.07 µM | SK-MEL-2 2.27 µM | CCRF-CEM 2.74 µM | SR 3.44 µM | OVCAR-8 3.95 µM | U-251 3.26 µM | SF-268 4.06 µM | Malme-3M 2.49 µM | OVCAR-5 4.17 µM | SK-OV-3 5.41 µM | OVCAR-4 1.79 µM
active: T47D 0.875 µM

CC(C)=CCC[C@]1(C)CC[C@]2(C)C3CCC(=C(C)C)[C@@H](CCCO)[C@]3(C)CC[C@@]2(C)C1 (stereo partly drawn)
inactive: MCF7 24 µM | SW-620 53.8 µM | T47D 4.92 µM | UACC-257 24 µM | UACC-62 > 100 µM | COLO 205 > 100 µM | SN12C 54.5 µM | SK-MEL-2 18.8 µM | CCRF-CEM 36.9 µM | OVCAR-8 30.5 µM | U-251 23.6 µM | SF-268 82 µM | Malme-3M > 100 µM | OVCAR-5 59.4 µM | SK-OV-3 > 100 µM | OVCAR-4 > 100 µM | DU-145 34 µM | MOLT-4 39.2 µM

CCCCCCCCCCCCCCCC(=O)OCC(C[As](=O)(O)O)OC(=O)CCCCCCCCCCCCCCC (stereo not drawn)
inactive: SF-539 > 100 µM | MCF7 > 100 µM | SW-620 > 50.9 µM | T47D > 100 µM | UACC-257 > 100 µM | UACC-62 > 100 µM | COLO 205 > 100 µM | SN12C > 74.5 µM | SK-MEL-2 > 100 µM | CCRF-CEM > 100 µM | SR > 100 µM | OVCAR-8 > 100 µM | U-251 > 65.6 µM | SF-268 68.9 µM | Malme-3M > 74.8 µM | OVCAR-5 > 100 µM | SK-OV-3 > 58.2 µM | OVCAR-4 > 100 µM | MOLT-4 > 100 µM

CCCNC(=S)N/C=C1/C(=O)C=C(C)OC1=O
inactive: SF-539 > 100 µM | MCF7 > 100 µM | SW-620 > 100 µM | T47D > 100 µM | UACC-257 > 100 µM | UACC-62 > 100 µM | COLO 205 > 100 µM | SN12C > 100 µM | SK-MEL-2 > 100 µM | OVCAR-8 > 100 µM | U-251 > 100 µM | OVCAR-5 > 100 µM | SK-OV-3 > 100 µM | OVCAR-4 > 100 µM | DU-145 > 100 µM | MOLT-4 > 100 µM

CC1OC(OC2CC(O)(C(=O)CO)Cc3c(O)c4c(c(O)c32)C(=O)c2ccccc2C4=O)CC(N)C1O (stereo not drawn)
active: SF-539 < 0.0112 µM | SW-620 < 0.01 µM | T47D < 0.01 µM | UACC-257 0.054 µM | UACC-62 0.0101 µM | COLO 205 < 0.017 µM | SN12C < 0.0112 µM | SK-MEL-2 0.0387 µM | CCRF-CEM < 0.01 µM | SR < 0.01 µM | OVCAR-8 0.0171 µM | U-251 < 0.01 µM | SF-268 < 0.0163 µM | Malme-3M < 0.01 µM | OVCAR-5 0.0242 µM | SK-OV-3 0.0109 µM | OVCAR-4 0.0813 µM | DU-145 0.0101 µM | MOLT-4 < 0.01 µM

CC(C)C1OC23CCCCC2C(C#N)(C#N)C1(C#N)C(=N)O3 (stereo not drawn)
inactive: SF-539 18 µM | MCF7 12.1 µM | SW-620 13.7 µM | T47D 17.6 µM | UACC-257 20.6 µM | UACC-62 20.6 µM | COLO 205 14.6 µM | SN12C 15.2 µM | SK-MEL-2 26 µM | CCRF-CEM 5.56 µM | OVCAR-8 20.2 µM | U-251 17.4 µM | SF-268 19.2 µM | Malme-3M 16.8 µM | OVCAR-5 20.1 µM | SK-OV-3 > 100 µM | DU-145 26.3 µM | MOLT-4 23.1 µM

O=c1ccc2c(Cl)sc(Cl)c2[nH]1
inactive: MCF7 > 100 µM | SW-620 > 100 µM | T47D > 100 µM | UACC-257 > 100 µM | UACC-62 > 100 µM | SN12C > 100 µM | SK-MEL-2 > 100 µM | CCRF-CEM > 100 µM | OVCAR-8 > 100 µM | U-251 > 100 µM | SF-268 > 100 µM | Malme-3M 43.8 µM | OVCAR-5 > 100 µM | SK-OV-3 > 100 µM | OVCAR-4 > 100 µM | DU-145 > 100 µM | MOLT-4 > 100 µM

c1c[nH]c(-c2ccc(-c3ccc[nH]3)c3nsnc23)c1
active: MCF7 0.0877 µM | T47D 0.0336 µM | OVCAR-4 0.612 µM
inactive: SF-539 > 56.9 µM | SW-620 > 52.4 µM | UACC-257 > 61 µM | UACC-62 > 47.5 µM | COLO 205 1.53 µM | SN12C > 54.5 µM | SK-MEL-2 44.3 µM | CCRF-CEM 15.4 µM | OVCAR-8 > 43.7 µM | U-251 42.1 µM | SF-268 > 53.6 µM | OVCAR-5 1.14 µM | SK-OV-3 > 68.1 µM | DU-145 > 56.8 µM | MOLT-4 > 30.3 µM

C=C(CCC=C(C)C)C1CC=C(C)CC1 (stereo not drawn)
inactive: SF-539 25.9 µM | MCF7 19.8 µM | SW-620 22.9 µM | T47D 28.1 µM | UACC-257 > 100 µM | UACC-62 36.9 µM | COLO 205 26.4 µM | SN12C 19.7 µM | SK-MEL-2 17.7 µM | OVCAR-8 36 µM | U-251 18 µM | SF-268 28.8 µM | Malme-3M > 100 µM | OVCAR-5 > 100 µM | SK-OV-3 > 100 µM | DU-145 23.2 µM

COc1ccccc1NCc1cccc2c(=O)c3ccc(Cl)cc3oc12
inactive: SF-539 65.2 µM | MCF7 28.1 µM | SW-620 76.9 µM | T47D > 100 µM | UACC-257 60.5 µM | UACC-62 > 100 µM | COLO 205 56.9 µM | SN12C > 100 µM | SK-MEL-2 49.1 µM | CCRF-CEM 48 µM | SR 83.4 µM | OVCAR-8 > 100 µM | U-251 33.5 µM | Malme-3M 34.7 µM | OVCAR-5 > 100 µM | SK-OV-3 > 100 µM | OVCAR-4 > 100 µM | MOLT-4 > 100 µM

COc1cc2c(cc1OC)C13CCN4CC5=CCOC6CC(=O)N2C1C6C5CC43O (stereo not drawn)
inactive: SF-539 > 100 µM | MCF7 > 100 µM | SW-620 > 100 µM | T47D > 100 µM | UACC-257 > 100 µM | UACC-62 > 100 µM | COLO 205 > 100 µM | SN12C > 100 µM | SK-MEL-2 > 100 µM | CCRF-CEM > 100 µM | OVCAR-8 > 100 µM | U-251 > 100 µM | SF-268 > 100 µM | Malme-3M > 100 µM | OVCAR-5 > 100 µM | SK-OV-3 > 100 µM | OVCAR-4 > 100 µM | DU-145 > 100 µM | MOLT-4 > 100 µM

CCCCCCCCC#CCCCCCCC(F)C(=O)O (stereo not drawn)
inactive: SF-539 > 100 µM | SW-620 > 100 µM | T47D > 100 µM | UACC-257 > 100 µM | COLO 205 > 100 µM | SK-MEL-2 > 100 µM | CCRF-CEM > 100 µM | SR > 100 µM | OVCAR-8 > 100 µM | U-251 > 100 µM | SF-268 > 100 µM | Malme-3M > 100 µM | OVCAR-5 > 100 µM | SK-OV-3 > 100 µM | OVCAR-4 83.6 µM | DU-145 > 100 µM | MOLT-4 > 100 µM

CN(C)CCC(C#N)(c1ccccc1)c1ccccc1
active: MOLT-4 0.102 µM
inactive: SF-539 > 100 µM | MCF7 94.4 µM | SW-620 > 100 µM | T47D 97.9 µM | UACC-257 24.4 µM | UACC-62 73.3 µM | COLO 205 45.2 µM | SN12C 72.4 µM | SK-MEL-2 > 100 µM | OVCAR-8 96.2 µM | U-251 88.9 µM | SF-268 > 100 µM | Malme-3M 35.1 µM | OVCAR-5 79.6 µM | SK-OV-3 > 100 µM | OVCAR-4 > 100 µM | DU-145 > 100 µM
